# Test results: article PMC11507441, “Oilseed Cakes: A Promising Source of Antioxidant, and Anti-Inflammatory Agents—Insights from Lactuca sativa” (International Journal of Molecular Sciences, 2024)
# Like-named read-outs stand apart in the source and are kept apart here.
# Columns and labels:
# E. coli = experiment: Antimicrobial screening, zone of inhibition; type: cell-based; conditions: for zone of inhibition at 1000 µg/mL: Escherichia coli, isolated compounds 1 mg/mL, read-out: E. coli Diameter of Inhibition Zone (mm); for E. coli %Activity Index: 1 mg/mL
# Protocol: (§1) The procedure was performed according to […] et al.. A comparison of the extract's zone of inhibition to that of a reference antibiotic's activity index was determined using the following equation:Activity index = (the inhibition zone of extract/the inhibition zone of the standard) × 100
# P. aeruginosa = experiment: Antimicrobial screening, zone of inhibition; type: cell-based; conditions: Table 1; for zone of inhibition at 1000 µg/mL: Pseudomonas aeruginosa, isolated compounds 1 mg/mL, read-out: P. aeruginosa Diameter of Inhibition Zone (mm); for P. aeruginosa %Activity Index: 1 mg/mL, relative to ciprofloxacin
# Protocol: The procedure was performed according to Stylianakis et al.. A comparison of the extract’s zone of inhibition to that of a reference antibiotic’s activity index was determined using the following equation:Activity index = (the inhibition zone of extract/the inhibition zone of the standard) × 100
# ABTS antioxidant assay = type: biochemical; set-up: IC50 in ABTS assay: unit not given beside the values; conditions: for IC50 in ABTS assay: unit not given
# Protocol: The experiment was performed in triplicate according to Zaky et al.. The absorbance of control of the resulting green-blue solution (ABTS* radical solution) was recorded at λ max 734 nm.
# C. albicans = experiment: Antimicrobial screening, zone of inhibition; type: cell-based; conditions: for zone of inhibition at 1000 µg/mL: Candida albicans, isolated compounds 1 mg/mL, read-out: C. Albicans Diameter of Inhibition Zone (mm); for C. Albicans %Activity Index: 1 mg/mL
# Protocol: as §1
# S. aureus = experiment: Antimicrobial screening, zone of inhibition; type: cell-based; conditions: for zone of inhibition at 1000 µg/mL: Staphylococcus aureus, isolated compounds 1 mg/mL, read-out: S. aureus Diameter of Inhibition Zone (mm); for S. aureus %Activity Index: 1 mg/mL
# Protocol: as §1
# HepG-2 cancer cell line = experiment: Cytotoxic activity (MTT assay); type: cell-based; conditions: for IC50: Homo sapiens; for Selectivity Index HepG2: IC50 normal (WI-38)/IC50 cancer
# Protocol: (§2) The HPLC was performed in the Institute for Plant Biology, TU Braunschweig, using a Young Lin quaternary pump, vacuum degasser, column oven (40 °C), diode array detector (YL9160 PDA), and a Midas Spark Holland autosampler. UV spectra (λ max) were measured in the central laboratory of the Faculty of Pharmaceutical Science at Mansoura University using spectroscopic methanol with an ultraviolet-visible spectrophotometer (Shimadzu 1601 PC, version TCC-240A, Kyoto, Japan). The NMR unit of Mansoura University’s Faculty of Pharmacy obtained nuclear magnetic resonance spectra (^1H-NMR, ^13C-NMR, DEPT-Q, APT, HSQC, and HMBC) using a Bruker DRX 600 NMR spectrometer (600 and 150 MHz for ^1H and ^13C-NMR, respectively) and with the Bruker Corporation Avance III 400 spectrometer, which measures ^1H and ^13C-NMR at 400 and 100 MHz, respectively. The types of solvents that are used are CDCl3, CD3OD, and DMSO-d6. For normal phase chromatography, silica gel G 60–230 mesh (Merck, Darmstadt, Germany) was packed using a wet or dry method in the specified solvent. The purchase of Normal Human lung fibroblast (WI-38), hepatic cancer cell lines (HePG-2), and mammary gland (MCF-7) cell lines from ATCC was made possible by the Holding firm for biological goods and vaccines (VACSERA), which is based in Cairo, Egypt.
# (§3) Using the MTT test, the inhibitory effects of substances on cell growth were ascertained using the cell lines compared to normal lung fibroblast cells (WI-38). The selectivity index was calculated via the Selectivity index (SI) equation: SI equals IC50 normal/IC50 cancer.
# MCF-7 cancer cell line = experiment: Cytotoxic activity (MTT assay); type: cell-based; conditions: for IC50: Homo sapiens; for Selectivity Index MCF-7: IC50 normal (WI-38)/IC50 cancer
# Protocol: as §2, §3
# [1] = Cytotoxic activity (MTT assay), normal cells; type: cell-based; conditions: human
# Protocol: as §2, §3
# [2] = system: carrageenan-induced paw oedema; experiment: Carrageenan-induced paw oedema; type: in vivo; conditions: dose 10 mg/kg oral, rat
# Protocol: Adult albino rats 180-220 g of both sexes used in the investigation were acquired from the Mansoura University Faculty of Pharmacy's Animal House. Standard laboratory diet and water were provided, and they were housed in cages maintained at a constant temperature of 22 ± 2 °C. The Animal Care and Use Committee (MU-ACUC) of Mansoura University, Egypt, has approved all procedures involving animals with code number: […] Throughout the experiment, medications and extracts were given orally in doses of 1 mL/100 g of the rat's body weight after being solubilized in carboxymethyl cellulose (CMC) in order to create a suspension formula. In this test, rats were divided into six groups, with each group containing 5 animals. Group-1: […] Group-2: Positive control (carrageenan-induced oedema, Sigma (St. Louis, MO, USA)) without any treatment. […] Group-4: […] extract of Lactuca sativa was administered at a 2 g/kg dose. Group-5: Compound (1) is administered at a dose of 20 mg/kg. Group-6: Compound (1) at a dose of 40 mg/kg. Group-7: Combination of standard and compound (1) at doses of (10 + 20) mg/kg, respectively. […] Using a digital vernier calliper, the swelling of the paw that had been injected with carrageenan was measured prior to injection as well as 1, 2, 3, 4, and 5 h following the treatment's induction. The percentage inhibition of oedema in the test animals treated with the extract compared to the carrageenan control group was used to calculate the anti-inflammatory activity. The formula […] was used to calculate the percentage inhibition of inflammation, where “dt” represents the difference in paw volume in the drug-treated group and “dc” represents the difference in paw volume relative to the control group. Moreover, “I” represents the suppression of inflammation.
# dermal inflammation = experiment: Histopathological assessment of paw skin tissue (carrageenan model); type: in vivo, rat; conditions: Group 3, ibuprofen 10 mg/kg; 5 h after carrageenan
# Text: Five hours following the carrageenan injection, tissue specimen samples from the paw skin tissue of every group under study were removed for histological examination. Prior to being submerged in paraffin blocks, they were fixed in a 10% formalin solution and stained with hematoxylin-eosin. Using a microtome, paraffin sections with a thickness of 5 µm were cut, and hematoxylin and eosin were frequently applied to the sections. Microscopically, these tissue slices were inspected. Consequently, the sections were examined under a light microscope; on the other hand, photos taken with a digital camera (Canon Power-shot D10) recorded the progression of paw oedema.
# GPx = GPx activity in rat paw tissue homogenate (carrageenan model); type: in vivo
# Protocol: (§4) The levels of inflammatory mediators (IL-1β, TNF-α, and PGE2) in rat paw tissue homogenate were measured using the following Kits: Rat TNF-α (Tumor Necrosis Factor Alpha) ELISA Kit from Elabscience® Company, Houston, TX, USA, Interleukin 1 Beta (IL-1b) Organism Species: Rattus norvegicus (Rat) from Cloud Clone Crop Company and Rat PGE2 (Prostaglandin E2) ELISA Kit from Fine test® company Hubei, China. In addition, oxidative stress parameters in rat paw tissue homogenate were measured using superoxide dismutase, glutathione peroxidase, and catalase Kits from the Biodiagnostic company, Birmingham, UK.
# (§5) Rats were slaughtered, and their paw tissues were gathered and weighed five hours after the carrageenan was administered. The tissues underwent processing after being fixed in 10% formalin. Rat paw tissue was homogenized, and its oxidative stress indices (SOD, CAT, and GPx) as well as the levels of inflammatory mediators (IL-1β, TNF-α, and PGE2) were measured.
# CAT = CAT activity in rat paw tissue homogenate (carrageenan model); type: in vivo; conditions: paw tissue 5 h after carrageenan; ibuprofen 10 mg/kg
# Protocol: as §4, §5
# SOD = SOD activity in rat paw tissue homogenate (carrageenan model); type: in vivo
# Protocol: as §4, §5
# [3] = Table 1, relative to clotrimazole
# [4] = Table 1, relative to ciprofloxacin
# [5] = HepG2, read-out: In Vitro Cytotoxicity IC50 (µg/mL) HepG-2
# [6] = MCF7, read-out: In Vitro Cytotoxicity IC50 (µg/mL) MCF-7
# [7] = paw tissue 5 h after carrageenan, ibuprofen 10 mg/kg
# [8] = Table S1, extracts and fractions 1 mg/mL
# [9] = Table S1, relative to ampicillin standard
SMILES,zone of inhibition at 1000 µg/mL (E. coli; Table 1) [mm],zone of inhibition at 1000 µg/mL (P. aeruginosa) [mm],zone of inhibition at 1000 µg/mL (C. albicans; Table 1) [mm],C. Albicans %Activity Index (C. albicans; [3]) [%],E. coli %Activity Index (E. coli; [4]) [%],zone of inhibition at 1000 µg/mL (S. aureus; Table 1) [mm],S. aureus %Activity Index (S. aureus; [4]) [%],P. aeruginosa %Activity Index (P. aeruginosa) [%],IC50 (HepG-2 cancer cell line; [5]) [µg/mL],Selectivity Index HepG2 (HepG-2 cancer cell line),IC50 (MCF-7 cancer cell line; [6]) [µg/mL],Selectivity Index MCF-7 (MCF-7 cancer cell line),further results
"O=C(O)c1cn(C2CC2)c2cc(N3CCNCC3)c(F)cc2c1=O [Ciprofloxacin, ciprofloxacin, reference compound]",26 ± 0.3,22.87 ± 0.15,–,–,–,–,–,–,–,–,–,–,–
"O=c1cc(-c2ccc(O)cc2)oc2cc(O[C@@H]3O[C@H](CO)[C@@H](O)[C@H](O)[C@H]3O)cc(O)c12 [Compound 4, apigenin 7-O-β-D-glucoside]",6.8 ± 0.15,9.8 ± 0.15,5.95 ± 0.07,22.1,26.1,11.9 ± 0.15,50,42.8,43.4 ± 2.5,1.9,39.8 ± 2.2,2.1,"IC50 in ABTS assay (ABTS antioxidant assay; isolated compounds from lettuce seedcake): 51.27 ± 0.25; IC50 ([1]; MTT, normal cells, read-out: In Vitro Cytotoxicity IC50 (µg/mL) WI-38): 84.3 ± 4.3 µg/mL"
"O=c1cc(-c2ccc(O)c(O)c2)oc2cc(O)cc(O)c12 [Compound 2, luteolin]",9.8 ± 0.2,12.9 ± 0.1,10.7 ± 0.15,40.5,37.8,17 ± 0.1,71.7,56.6,19.5 ± 1.3,3,11.6 ± 0.9,5.1,IC50 [1]: 59.3 ± 3.2 µg/mL
"CC(C)Cc1ccc(C(C)C(=O)O)cc1 (stereo not shown) [Ibuprofen, ibuprofen, reference compound]",–,–,–,–,–,–,–,–,–,–,–,–,% Inhibition (%I) of paw oedema ([2]; 1 h): 15.62%; Increase in Paw Oedema ([2]; 1 h): 0.69 ± 0.16 mL; % Inhibition (%I) of paw oedema ([2]; 2 h): 25.62%; Increase in Paw Oedema ([2]; 2 h): 1.57 ± 0.21 mL; % Inhibition (%I) of paw oedema ([2]; 3 h): 28.5%; Increase in Paw Oedema ([2]; 3 h): 1.82 ± 0.38 mL; % Inhibition (%I) of paw oedema ([2]; 4 h): 62.66%; Increase in Paw Oedema ([2]; 4 h): 1.49 ± 0.47 mL; % Inhibition (%I) of paw oedema ([2]; 5 h): 70.9%; Increase in Paw Oedema ([2]; 5 h): 1.20 ± 0.37 mL; Histopathology of paw skin (H&E) (dermal inflammation): mild dermal inflammation; GSH protection (GPx; ibuprofen alone): 78.74%; GPx (U/gm Tissue) (GPx; [7]): 93.35 ± 8.84 U/gm Tissue; CAT (U/gm Tissue) (CAT): 2.20 ± 0.20 U/gm Tissue; SOD protection (SOD; ibuprofen alone): 75.17%; SOD (U/gm Tissue) (SOD; [7]): 142.1 ± 14.71 U/gm Tissue
"Clc1ccccc1C(c1ccccc1)(c1ccccc1)n1ccnc1 [Clotrimazole, clotrimazole, reference compound]",–,–,26.9 ± 0.1,100,–,–,–,–,–,–,–,–,"C. Albicans %Activity Index (C. albicans; Table S1, relative to clotrimazole standard): 100%; C. Albicans Diameter of inhibition zone (mm) (C. albicans; [8]): 25.9±0.1 mm"
"CCC(CC[C@@H](C)C1CCC2C3CC=C4C[C@@H](O[C@@H]5O[C@H](CO)[C@@H](O)[C@H](O)[C@H]5O)CC[C@]4(C)C3CC[C@@]21C)C(C)C (stereo partly drawn) [Compound 5, β-sitosterol 3-O-β-D-glucoside]",5.1 ± 0.1,7.9 ± 0.1,4.9 ± 0.1,18.2,19.6,10.8 ± 0.2,49.6,34.5,–,0.54,–,0.66,"IC50 (HepG-2 cancer cell line; HepG2, MTT, read-out: In Vitro Cytotoxicity IC50 (µg/mL) HepG-2): 63.6 ± 3.4 µg/mL; IC50 (MCF-7 cancer cell line; MCF7, MTT, read-out: In Vitro Cytotoxicity IC50 (µg/mL) MCF-7): 52.8 ± 2.9 µg/mL; IC50 ([1]; WI-38 normal lung fibroblast cells, MTT, normal cells, read-out: In Vitro Cytotoxicity IC50 (µg/mL) WI-38): 34.8 ± 2.1 µg/mL"
"CC1(C)S[C@@H]2[C@H](NC(=O)[C@H](N)c3ccccc3)C(=O)N2[C@H]1C(=O)O [Ampicillin, ampicillin, reference compound]",–,–,–,–,–,–,–,–,–,–,–,–,E. coli %Activity Index (E. coli; [9]): 100%; E. coli Diameter of inhibition zone (mm) (E. coli; [8]): 23.9 ± 0.15 mm; S. aureus %Activity Index (S. aureus; [9]): 100%; S. aureus Diameter of inhibition zone (mm) (S. aureus; [8]): 22.87±0.15 mm
O=C1O[C@H]([C@@H](O)CO)C(O)=C1O [Ascorbic acid],–,–,–,–,–,–,–,–,–,–,–,–,IC50 in ABTS assay (ABTS antioxidant assay; fractions of lettuce seedcake extract): 29.47 ± 0.17; % inhibition in ABTS assay (ABTS antioxidant assay; seed cakes' methanolic extract at 1 mg/mL): 88.1%
"COc1cccc2c1C(=O)c1c(O)c3c(c(O)c1C2=O)C[C@@](O)(C(=O)CO)C[C@@H]3O[C@H]1C[C@H](N)[C@H](O)[C@H](C)O1 [Doxorubicin, doxorubicin, reference compound]",–,–,–,–,–,–,–,–,4.5 ± 0.2,–,–,–,–
"O=c1cc(-c2ccc(O)c(O)c2)oc2cc(O[C@@H]3O[C@H](CO)[C@@H](O)[C@H](O)[C@H]3O)cc(O)c12 [Compound 3, luteolin 7-O-β-D-glucoside]",8.8 ± 0.15,11.8 ± 0.25,9.87 ± 0.15,36.7,33.8,14.8 ± 0.15,61.9,51.5,24.8 ± 1.9,2,17.8 ± 1.3,2.8,IC50 [1]: 49.6 ± 2.7 µg/mL
